According to PMC11696576, “Next generation thiazolyl ketone inhibitors of cytosolic phospholipase A2 α for targeted cancer therapy” (Nature Communications, 2025):
Values joined by “and” are separate entries in the source; they are usually repeats but may differ in a detail not shown here. Equal values may be shown once. Read-outs that look alike come from different tables or passages of the source.

System: panel of 66 cancer cell lines
Assay: cancer cell line screen, proliferation assay (ATPlite, 72 h)
Assay type: cell-based, human
Conditions: for raw signal, dose-response (Figure S7a): rep1, rep2, listed as AVX235; for IC50: Homo sapiens
Text: Targeting specific molecular vulnerabilities in cancer is considered a key approach to reducing the adverse effects of chemotherapy. However, the events that govern the susceptibility to suppression of the cPLA2α in cancer remain largely unexplored. We therefore took the approach of screening the antiproliferative activity of AVX420 in a panel of 66 cancer cell lines (hereafter referred to as the cancer cell line screen or CCLS) to allow us to investigate molecular and genetic vulnerabilities to the drug.
Screening of compound activities in 66 cancer cell lines was carried out at the Netherlands Translation Research Center. Briefly, proliferation assays were performed 72 h after compound addition using ATPlite 1step reagent (Perkin Elmer). IC50s calculated by non-linear regression analysis were used as a measure of compound activity for investigating associations with genetic factors. A complete description of the laboratory and data analysis methods are available in the Supplementary Information file (Supplemental Methods: Cancer Cell Line Screening).
Cancer cell line screening
Cell proliferation assays
All cell lines were from the American Type Culture Collection (ATCC) Manassas, Virginia (US) and maintained under ATCC-recommended protocols and within 9 pas- […]
DMSO at -80°C until one hour before use. Cells exposed within one hour after thaw-ing of the compound stocks. Final compound concentration range in the assay was 10 […]
cated by supplier. Compounds were dissolved in 100 % DMSO and stored at room temperature. Final concentration of the reference compounds in the assay was 3.16x10-5 M to 3.16x10-9 M. The final DMSO concentration during incubation was […]
Cell lines were plated in Advanced RPMI 1640 (Gibco, ref 12633-012) cell culture medium, containing 1% Glutamax solution (Gibco, ref 35050-038), 0.4% Pen Strep solution (Gibco, ref 15140-122) and bovine serum. The cPLA2α inhibitors were tested in 0.5% bovine serum (HyClone, ref SH30072.03) with the exception of769-P, A-204, BT-549, SR, T98G, which were tested in the presence of 1.0% serum and A-704 and LNCaP FGS, which were tested in the in the presence of 10% serum. Reference com-pounds were all tested in the presence of 10% bovine serum.
Cells were dispensed in a 384-well plate, at a concentration of 200 - 3200 cells per well, depending on the cell line, in 45 μL medium. Plated cells were incubated in a humidified atmosphere of 5% CO2 at 37 °C. After 24 hours, 5 μL of compound dilu-tion was added and plates were further incubated for another 72 hours. After 72 hours, 25 μL of ATPlite 1Step™ (PerkinElmer) solution was added to each well, and subse-quently shaken for 2 minutes. After 10 minutes of incubation in the dark, the lumines-cence was recorded on an Envision multimode reader (PerkinElmer).
Cell growth control. The cellular doubling times of all cell lines are calculated from the t = 0 hours and t = 72 hours growth signals of the untreated cells. If the doubling time is out of specification (0.5 – 2.0 times deviating from historic average) the assay […]
IC50s were calculated by non-linear regression using IDBS XLfit 5. The percentage growth after 72h (%-growth) was calculated as follows: 100% x (luminescence t = 72h / luminescence untreated,t=72h). This was fitted to the 10log compound concentration (conc) by a 4-parameter logistics curve: %-growth = bottom + (top – bottom) / (1+ 10(logIC50 – conc)*hill)), where hill is the Hill-coefficient, and bottom and top the asymptotic mini-mum and maximum cell growth that the compound allows in that assay.
All analysis were performed in the statistical software package R and visualized using GraphPad Prism version 10.0 .0

CCCCCCCCc1ccc(OCC(=O)c2nc(C(=O)OC)cs2)cc1 [GK470]
average panel 10logIC50 (10log of IC50 in nM, panel average): 4.20
pIC50 (769P, kidney): 4,709
pIC50 (786O, kidney): 4,868
pIC50 (A172, central_nervous_system): 4,701
pIC50 (A204, soft_tissue): 4,858
pIC50 (A375, skin): 4,792
pIC50 (A427, lung): 4,933
pIC50 (A498, kidney): 4,604
pIC50 (A549, lung): 4,718
pIC50 (ACHN, kidney): 4,677
pIC50 (AN3CA, endometrium): 4,738
pIC50 (AU565, breast): 4,915
pIC50 (AsPC1, pancreas): 4,828
pIC50 (BT20, breast): 4,526
pIC50 (BT549, breast): 4,643
pIC50 (BxPC3, pancreas): 4,719
pIC50 (C33A, cervix): 4,835
pIC50 (CAL27, upper_aerodigestive_tract): 4,767
raw signal, dose-response (Figure S7a) (CCRF-CEM, Log10 M -4): 6827 and 7267
raw signal, dose-response (Figure S7a) (CCRF-CEM, Log10 M -6): 6001427 and 6137653
raw signal, dose-response (Figure S7a) (CCRF-CEM, Log10 M -6.5): 6250880 and 6122947
raw signal, dose-response (Figure S7a) (CCRF-CEM, Log10 M -7): 6208933 and 6388787
raw signal, dose-response (Figure S7a) (CCRF-CEM, Log10 M -7.5): 5662213 and 5677453
raw signal, dose-response (Figure S7a) (CCRF-CEM, Log10 M -8): 5954640 and 6349707
pIC50 (COLO829, unknown): 4,775
pIC50 (Daoy, central_nervous_system): 4,799
pIC50 (DoTc24510, cervix): 4,777
pIC50 (FaDu, upper_aerodigestive_tract): 4,794
pIC50 (HCT15, large_intestine): 4,921
pIC50 (HCT116, large_intestine): 4,798
IC50 (769-P, read-out: IC50): 19.6 µM
IC50 (786-0, 786-O, read-out: IC50): 13.6 µM
IC50 (72 h, panel average, 72 h, read-out: average IC50 in the cancer cell line screen): 16.3 µM
IC50 (A 172, A-172, read-out: IC50): 19.9 µM
IC50 (A204, A-204, read-out: IC50): 13.9 µM
IC50 (A388, cervix, read-out: pIC50 (converted)): 14.5 µM
IC50 (A388, read-out: IC50): 14.5 µM
IC50 (A498, A-498, read-out: IC50): 24.9 µM
IC50 (A549, A-549, read-out: IC50): 19.1 µM
IC50 (A704, A704, kidney, read-out: pIC50 (converted)): 34 µM
IC50 (A704, A-704, read-out: IC50): > 100 µM
IC50 (A-375, A375, read-out: IC50): 16.1 µM
IC50 (A-427, A-427, read-out: IC50): 11.7 µM
IC50 (ACHN, read-out: IC50): 21.1 µM
IC50 (AN3-CA, AN3 CA, read-out: IC50): 18.3 µM
IC50 (ASPC1, AsPC-1, read-out: IC50): 14.8 µM
IC50 (AU565, AU-565, read-out: IC50): 12.2 µM
IC50 (BT-20, BT-20, read-out: IC50): 29.8 µM
IC50 (BT-549, BT-549, read-out: IC50): 22.7 µM
IC50 (BXPC-3, BxPC-3, read-out: IC50): 19.1 µM
IC50 (C-33-A, C-33 A, read-out: IC50): 14.6 µM
IC50 (CAL-27, CAL 27, read-out: IC50): 17.1 µM
IC50 (CCRF-CEM, CCRFCEM, blood, read-out: pIC50 (converted)): 11.7 µM
IC50 (CCRF-CEM, read-out: IC50): 11.7 µM
IC50 (COLO 205, COLO 205, read-out: IC50): 18.5 µM
IC50 (COLO-829, COLO 829, read-out: IC50): 16.8 µM
IC50 (DLD-1, DLD1, large_intestine, read-out: pIC50 (converted)): 13.8 µM
IC50 (DLD-1, DLD-1, read-out: IC50): 13.8 µM
IC50 (DU-145, DU 145, read-out: IC50): 19.3 µM
IC50 (Daoy, read-out: IC50): 15.9 µM
IC50 (DoTc2-4510, DoTc2 4510, read-out: IC50): 16.7 µM
IC50 (FaDu, read-out: IC50): 16.1 µM
IC50 (HCT-15, HCT-15, read-out: IC50): 12 µM
IC50 (HCT-116, HCT 116, read-out: IC50): 15.9 µM
IC50 (Hs-578T, Hs 578T, read-out: IC50): 13.7 µM
IC50 (J82, J82, read-out: IC50): 15.8 µM
IC50 (Jurkat E6.1, Jurkat E6.1, read-out: IC50): 12.5 µM
IC50 (K562, K-562, read-out: IC50): 10.9 µM
IC50 (KU812, KU812, read-out: IC50): 10.4 µM
IC50 (LNCaP, LNCaP FGC, read-out: IC50): > 100 µM
IC50 (LS174T, LS 174T, read-out: IC50): 13 µM
IC50 (LoVo, read-out: IC50): 19.3 µM
IC50 (MCF7, MCF7, read-out: IC50): 12.7 µM
IC50 (MG-63, MG63, bone, read-out: pIC50 (converted)): 20.4 µM
IC50 (MG-63, MG-63, read-out: IC50): 20.4 µM
IC50 (MIA PaCa-2, MIA PaCa-2, read-out: IC50): 10.9 µM
IC50 (MOLT-4, MOLT-4, read-out: IC50): 12 µM
IC50 (MeWo, read-out: IC50): 17.3 µM
IC50 (NCI-H82, NCI-H82, read-out: IC50): 13.7 µM
IC50 (NCI-H460, NCI-H460, read-out: IC50): 22.5 µM
IC50 (OVCAR-3, OVCAR-3, read-out: IC50): 14.3 µM
IC50 (PA-1, PA-1, read-out: IC50): 11.6 µM
IC50 (RKO, read-out: IC50): 8.87 µM
IC50 (RPMI-7951, RPMI-7951, read-out: IC50): 16.2 µM
IC50 (RT-4, RT4, read-out: IC50): 16.5 µM
IC50 (SHP77, SHP-77, read-out: IC50): 11.9 µM
IC50 (SJCRH30, read-out: IC50): 18.4 µM
